Assay results reported in patent US20060047114A1, “Azabicyclic amine histamine-3 receptor antagonists” (Pfizer Inc, priority 2004, published 2006).

Target: T1, rat histamine H3 receptors (Rattus norvegicus, UniProt Q9QYN8)
T1 construct: Frozen rat frontal brain or frozen human post-mortem frontal brain is homogenized; from tissue; host or cells: rat frontal brain membranes
Experiment: Rat H3 binding (3H-N-methylhistamine displacement, frontal brain membranes)
Settings: radioligand 1 nM 3H-N-methylhistamine, 1-hour incubation, read-out: Rat H3 activity (Kj)
Description: The in vitro affinity of the compounds in the present invention at the rat or human histamine H3 receptors can be determined according to the following procedure. Frozen rat frontal brain or frozen human post-mortem frontal brain is homogenized in 20 volumes of cold 50 mM Tris HCl containing 2 mM MgCl2 (pH to 7.4 at 4° C.). The homogenate is then centrifuged at 45,000 G for 10 minutes. The supernatant is decanted and the membrane pellet re-suspended by Polytron in cold 50 mM Tris HCl containing 2 mM MgCl2 (pH to 7.4 at 4 degrees C.) and centrifuged again. The final pellet is re-suspended in 50 mM Tris HCl containing 2 mM MgCl2 (pH to 7.4 at 25 degrees C.) at a concentration of 12 mg/mL. Dilutions of compounds are made in 10% DMSO/50 mM Tris buffer (pH 7.4) (at 10× final concentration, so that the final DMSO concentration is 1%). Incubations are initiated by the addition of membranes (200 microliters) to 96 well V-bottom polypropylene plates containing 25 microliters of drug dilutions and 25 microliters of radioligand (1 nM final concentration ^3H-N-methylhistamine). After a 1-hour incubation, assay samples are rapidly filtered through Whatman GF/B filters and rinsed with ice-cold 50 mM Tris buffer (pH 7.4) using a Skatron cell harvester. Radioactivity is quantified using a BetaPlate scintillation counter.

T1 sequence (Q9QYN8 whole entry): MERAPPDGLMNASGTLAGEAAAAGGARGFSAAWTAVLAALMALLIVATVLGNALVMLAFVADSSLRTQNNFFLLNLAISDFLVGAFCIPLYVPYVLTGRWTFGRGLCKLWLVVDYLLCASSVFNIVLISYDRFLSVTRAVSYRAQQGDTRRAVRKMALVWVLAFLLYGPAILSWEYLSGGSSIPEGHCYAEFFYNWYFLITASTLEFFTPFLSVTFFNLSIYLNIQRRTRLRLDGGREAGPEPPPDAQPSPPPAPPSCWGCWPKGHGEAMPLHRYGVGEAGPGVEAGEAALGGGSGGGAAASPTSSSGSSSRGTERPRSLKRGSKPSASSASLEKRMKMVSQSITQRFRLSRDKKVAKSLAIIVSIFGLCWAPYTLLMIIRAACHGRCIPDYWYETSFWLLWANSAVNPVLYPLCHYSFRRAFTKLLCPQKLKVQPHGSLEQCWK

SMILES | Ki [nM]
c1ccc(CCN2C[C@@H]3[C@@H](COCCCN4CCCCC4)[C@@H]3C2)cc1 [Example 3, (1S,5R,6R)-3-Phenethyl-6-(3-piperidin-1-ylpropoxymethyl)-3-azabicyclo[3.1.0]-hexane] | 78
c1cncc(-c2ccc(CN3C[C@@H]4[C@@H](COCCCN5CCCCC5)[C@@H]4C3)cc2)c1 [Example 67, (1R,5S,6R)-6-(3-piperidin-1-ylpropoxymethyl)-3-(4-pyridin-3-ylbenzyl)-3-azabicyclo[3.1.0]hexane] | 63
CC(C)COc1ccc(CN2C[C@@H]3[C@@H](COCCCN4CCCCC4)[C@@H]3C2)cc1 [Example 70, (1R,5S,6R)-3-(4-isobutoxybenzyl)-6-(3-piperidin-1-ylpropoxymethyl)-3-azabicyclo[3.1.0]hexane] | 69
CC(=O)c1ccc(CN2C[C@@H]3[C@@H](COCCCN4CCCCC4)[C@@H]3C2)cc1 [Example 2, (1S,5R,6R)-1-{4-[6-(3-Piperidin-1-ylpropoxymethyl)-3-azabicyclo[3.1.0]hex-3-ylmethyl]-phenyl}-ethanone] | 116
O=C1NCCN1c1ccc(CN2C[C@@H]3[C@@H](COCCCN4CCCCC4)[C@@H]3C2)cc1 [Example 51, 1-{4-[(1R,5S,6R)-6-(3-piperidin-1-ylpropoxymethyl)-3-azabicyclo[3.1.0]hex-3-ylmethyl]-phenyl}-imidazolidin-2-one] | 58
c1ccc(CN2C[C@@H]3[C@@H](COCCCN4CCCCC4)[C@@H]3C2)cc1 [Int. 3, (1S,5R,6R)-3-Benzyl-6-(3-piperidin-1-ylpropoxymethyl)-3-azabicyclo[3.1.0]hexane] | 86

The next compounds have a lower Ki than those just listed; values first:

Ki [nM] | SMILES
51 | c1ccc(Oc2ccc(CN3C[C@@H]4[C@@H](COCCCN5CCCCC5)[C@@H]4C3)cc2)cc1 [Example 30, (1S,5R,6R)-3-(4-phenoxybenzyl)-6-(3-piperidin-1-ylpropoxymethyl)-3-azabicyclo[3.1.0]hexane]
32 | c1ccc(-c2ccc(CN3C[C@@H]4[C@@H](COCCCN5CCCCC5)[C@@H]4C3)cc2)cc1 [Example 17, (1S,5R,6R)-3-biphenyl-4-ylmethyl-6-(3-piperidin-1-ylpropoxymethyl)-3-azabicyclo[3.1.0]hexane]
43 | Fc1ccc(Oc2ccc(CN3C[C@@H]4[C@@H](COCCCN5CCCCC5)[C@@H]4C3)cc2)cc1 [Example 47, (1R,5S,6R)-3-[4-(4-fluorophenoxy)-benzyl]-6-(3-piperidin-1-ylpropoxymethyl)-3-azabicyclo[3.1.0]hexane]
53 | FC(F)C(F)(F)Oc1ccc(CN2C[C@@H]3[C@@H](COCCCN4CCCCC4)[C@@H]3C2)cc1 [Example 69, (1R,5S,6R)-6-(3-piperidin-1-ylpropoxymethyl)-3-[4-(1,1,2,2-tetrafluoroethoxy)-benzyl]-3-azabicyclo[3.1.0]hexane]
51 | c1ccc(Oc2cccc(CN3C[C@@H]4[C@@H](COCCCN5CCCCC5)[C@@H]4C3)c2)cc1 [Example 14, (1S,5R,6R)-3-(3-phenoxybenzyl)-6-(3-piperidin-1-ylpropoxymethyl)-3-azabicyclo[3.1.0]hexane]
41 | c1ccc(COc2cccc(CN3C[C@@H]4[C@@H](COCCCN5CCCCC5)[C@@H]4C3)c2)cc1 [Example 15, (1S,5R,6R)-3-(3-benzyloxybenzyl)-6-(3-piperidin-1-ylpropoxymethyl)-3-azabicyclo[3.1.0]hexane]
30 | COc1ccc(-c2ccc(CN3C[C@@H]4[C@@H](COCCCN5CCCCC5)[C@@H]4C3)cc2)cc1 [Example 57, (1R,5S,6R)-3-(4′-methoxybiphenyl-4-ylmethyl)-6-(3-piperidin-1-ylpropoxymethyl)-3-azabicyclo[3.1.0]hexane]
45 | CC(=O)Nc1ccc(CN2C[C@@H]3[C@@H](COCCCN4CCCCC4)[C@@H]3C2)cc1 [Example 49, N-{4-[(1R,5S,6R)-6-(3-piperidin-1-ylpropoxymethyl)-3-azabicyclo[3.1.0]hex-3-ylmethyl]-phenyl}-acetamide]
